Test results reported in PMC8164657, “Intraoperative visualization of nerves using a myelin protein-zero specific fluorescent tracer” (EJNMMI Research, 2021).
Residues, ends and D or L forms follow the SMILES beside them. *: point of attachment. X3 = O=C(O)CN(CCN(CCN(CC(=O)O)CC(=O)O)CC(=O)NCCN1C(=O)CC(*)C1=O)CC(=O)O

Tests used:
[1] = system: P0-expressing RT4 D6P2T myelinating Schwannoma cells; assay: Fluorescence confocal microscopy staining of P0-expressing cells; type: cell-based; conditions: 1 µM, 1 h incubation at 4 °C, N = 3 per tracer
Method: Cells were trypsinized and seeded onto 35-mm culture dishes that contained a glass insert (MatTek co) on the day prior to the imaging experiment.
To all samples, 1 mL medium containing 1 µM Cy5-P0_1–25, Cy5-P0_21–45, Cy5-P0_41–65, Cy5-P0_61–85, Cy5-P0_81–105, Cy5-P0_95–120, or Cy5-P0_101–125 was added at one hour prior to imaging (incubation at 4 °C; N = 3 per tracer). Peptide solutions were sonicated for 20 s prior to addition, in order to prevent aggregation of the peptides in solution. Cy5-functionalized derivatives of a P0-specific antibody (Cy5-P0Ab-H60), the extracellular portion of P0 (Cy5-P0ex) as well as a non-P0-specific peptide (Cy5-NP-41) and non-functionalized Cy5-Maleimide were used as controls (1 µM). A lysosomal (lysotracker green; 2 µL/mL, DND-26, Thermo Fisher) and nuclear stain (Hoechst 33342; 1 mg/mL, Thermo Fisher) were added as means to localize the cell nucleus and intracellular lysosomes. […]
In vitro and ex vivo fluorescence confocal images were acquired using a Leica SP8 WL at sequential settings and 10 × or 63 × magnification. […] For blocking studies, quantification of the fluorescence signal intensity (N = 10 for blocked and non-blocked) in the obtained images was performed using ImageJ according to previously described methods. […]

Biodistribution in mice = type: in vivo; conditions: mouse, CNS, total radioactivity; 10 MBq intravenous (tail vein), 4 h p.i.
Method: Synthesis and radiolabelling of DTPA-P0_101–125 with ^111In is described in Additional file 1: synthesis of control compounds. For quantitative assessment of the biodistribution of [^111In]In-DTPA-P0_101–125, 10 MBq of the labelled tracer was injected intravenously (tail vein). The percentage of the injected activity per gram of tissue (%IA/g) was assessed at 2 h post-injection as previously described. Excretion was defined as: (MBq present in animal at 24 h post-tracer administration/injected activity) * 100%.

tissue uptake at 4 h (Biodistribution in mice) [%ID/g]	Compound	staining of P0-expressing Schwannoma cells [1]
	C[N+]1=C(/C=C/C=C/C=C2/N(CCCCCC(=O)NCCN3C(=O)C=CC3=O)c3ccccc3C2(C)C)C(C)(C)c2ccccc21.[Cl-] [Cy5-Maleimide]	no staining was observed
0.12 ± 0.03	CC[C@H](C)[C@H](NC(=O)[C@H](CC(=O)O)NC(=O)[C@@H]1CCCN1C(=O)[C@@H]1CCCN1C(=O)[C@H](CC(N)=O)NC(=O)[C@H](CCCCN)NC(C)=O)C(=O)N[C@H](C(=O)NCC(=O)N[C@@H](CCCCN)C(=O)N[C@H](C(=O)N[C@@H](CO)C(=O)N[C@@H](CCC(N)=O)C(=O)N[C@H](C(=O)N[C@H](C(=O)N[C@@H](CC(C)C)C(=O)N[C@@H](Cc1ccc(O)cc1)C(=O)N[C@H](C(=O)N[C@@H](Cc1ccccc1)C(=O)N[C@@H](CCC(=O)O)C(=O)N[C@@H](CCCCN)C(=O)N[C@H](C(=O)N1CCC[C@H]1C(=O)N[C@H](C(=O)N[C@@H](CCCNC(=N)N)C(=O)N[C@@H](Cc1ccc(O)cc1)C(=O)N[C@@H](CSC1CC(=O)N(CCNC(=O)CN(CCN(CC(=O)O)CC(=O)O)CCN(CC(=O)O)CC(=O)O)C1=O)C(N)=O)[C@@H](C)O)C(C)C)C(C)C)[C@@H](C)O)C(C)C)[C@@H](C)O)C(C)C (some centres unmarked) [[^111In]In-DTPA-P0_101–125, metal not drawn] (Ac-KNPPDIVGKTSQVTLYVFEKVPTRYC(X3)-NH2)	
